Entries after “also recorded” stand apart in the source; their conditions may differ. Like-named read-outs stand apart in the source and are kept apart here.
Key:
[1] = test system: EV-71 Tainan/4643/98; settings: read-out: 50% Effective concentration EC50; EV-71 Tainan/4643/98, Vero 76, CPE
[2] = test system: Coxsackievirus B5 (CVB5); experiment: CVB5 CPE rescue; type: cell-based
[3] = test system: Human Echovirus-30 Bastianni; settings: read-out: 50% Effective concentration EC50, RD, lowest concentration tested 0.032 μM
[4] = test system: EVD68, strain IL/14-18952 (IL52); experiment: Preliminary EVD68 inhibition at single concentration, VP1 qPCR in RD cells; type: cell-based, EV-D68; settings: 5 μM, preliminary work, Fig. S2
[5] = biological target: CYP2D6 (Homo sapiens, UniProt P10635); experiment: CYP inhibition, CYP2D6; type: in vitro ADME; settings: read-out: CYP inhibition
Chain of CYP2D6 (P10635 whole entry): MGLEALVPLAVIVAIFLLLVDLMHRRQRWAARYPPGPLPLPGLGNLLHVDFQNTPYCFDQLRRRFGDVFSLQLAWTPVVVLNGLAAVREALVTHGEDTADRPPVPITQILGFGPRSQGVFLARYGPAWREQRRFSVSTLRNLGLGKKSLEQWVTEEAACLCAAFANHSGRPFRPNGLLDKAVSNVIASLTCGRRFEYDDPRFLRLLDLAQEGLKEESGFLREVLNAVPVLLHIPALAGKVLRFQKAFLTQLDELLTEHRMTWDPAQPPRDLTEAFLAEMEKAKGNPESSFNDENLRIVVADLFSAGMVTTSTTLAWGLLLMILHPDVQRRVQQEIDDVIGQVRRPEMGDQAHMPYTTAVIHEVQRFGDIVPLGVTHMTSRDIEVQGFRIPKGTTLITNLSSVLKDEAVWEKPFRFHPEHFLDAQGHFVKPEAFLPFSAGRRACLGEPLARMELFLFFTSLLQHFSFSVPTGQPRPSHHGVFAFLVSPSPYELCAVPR

[6] = Mouse liver microsomes stability; type: in vitro ADME
[7] = test system: EV-D68; experiment: In vitro inhibition of EV-D68; type: cell-based; settings: read-out: EC50 against EV-D68; discussion
[8] = Human plasma stability; type: in vitro ADME; settings: @ 5 hr, 37°C
[9] = test system: EV-D68 MP30 PP (mouse-adapted); experiment: EV-D68 neurological infection; type: in vivo, AG129 mice; settings: for Mean day of death: placebo 5.5 days
[10] = biological target: T1, pregnane X-receptor (PXR) (Homo sapiens, UniProt O75469); experiment: PXR agonist activity
T1 sequence (O75469 1-434): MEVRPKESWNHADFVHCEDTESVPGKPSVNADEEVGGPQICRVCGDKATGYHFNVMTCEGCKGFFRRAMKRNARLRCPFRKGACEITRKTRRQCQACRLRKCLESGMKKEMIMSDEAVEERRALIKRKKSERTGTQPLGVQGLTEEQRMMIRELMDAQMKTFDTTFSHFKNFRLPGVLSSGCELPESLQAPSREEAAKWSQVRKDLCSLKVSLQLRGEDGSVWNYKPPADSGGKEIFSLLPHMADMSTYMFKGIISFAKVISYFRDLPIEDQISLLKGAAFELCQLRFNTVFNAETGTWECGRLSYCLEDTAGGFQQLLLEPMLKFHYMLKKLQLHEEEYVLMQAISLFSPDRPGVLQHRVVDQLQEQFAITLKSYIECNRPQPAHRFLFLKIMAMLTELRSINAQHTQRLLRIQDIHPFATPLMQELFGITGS

[11] = test system: EV-D68 US/KY/14-18953; experiment: Virus yield reduction assay, EV-D68 US/KY/14-18953; type: cell-based; settings: read-out: 90% Effective concentration EC90, EV-D68 US/KY/14-18953, RD
[12] = test system: Influenza H1N1 California/07/2009; experiment: Virus yield reduction assay, Influenza H1N1 California/07/2009; type: cell-based; settings: read-out: 90% Effective concentration EC90, Influenza H1N1 California/07/2009, MDCK
[13] = test system: RD; experiment: Cytotoxicity; type: cell-based, human
[14] = test system: EV-D68 US/KY/14-18953; settings: read-out: 50% Effective concentration EC50; EV-D68 US/KY/14-18953, RD, CPE
[15] = biological target: CYP2C9 (Homo sapiens, UniProt P11712); experiment: CYP inhibition, CYP2C9; type: in vitro ADME; settings: read-out: CYP inhibition
Chain of CYP2C9 (P11712 whole entry): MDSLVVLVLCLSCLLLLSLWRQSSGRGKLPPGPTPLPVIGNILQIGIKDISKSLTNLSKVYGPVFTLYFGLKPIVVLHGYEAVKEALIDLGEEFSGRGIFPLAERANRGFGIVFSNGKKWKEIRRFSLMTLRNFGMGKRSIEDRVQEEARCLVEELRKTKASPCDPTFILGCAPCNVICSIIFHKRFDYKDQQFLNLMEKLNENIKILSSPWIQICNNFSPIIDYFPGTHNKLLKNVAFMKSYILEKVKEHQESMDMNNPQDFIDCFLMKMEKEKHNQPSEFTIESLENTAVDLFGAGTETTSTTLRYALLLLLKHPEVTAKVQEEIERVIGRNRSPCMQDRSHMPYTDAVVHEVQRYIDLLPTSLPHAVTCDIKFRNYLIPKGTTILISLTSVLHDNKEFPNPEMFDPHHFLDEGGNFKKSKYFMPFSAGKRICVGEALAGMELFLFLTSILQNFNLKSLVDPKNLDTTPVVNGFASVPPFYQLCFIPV

For `Cc1cc(-c2noc(C(F)(F)F)n2)ccc1OCCCc1cc(C(=O)N(C)C)no1` [compound 11526092, 3-(3-methyl-4-(3-(3-N,N-dimethylcarbamoyl-isoxazol-5-yl)propoxy)phenyl)-5-trifluoromethyl-1,2,4-oxadiazole], the EC50 [1] was 4.24 µM, the EC50 ([2]; read-out: 50% Effective concentration EC50) was 0.001 µM and the EC50 ([2]; read-out: EC50 against CVB5, Vero cells, text values (Fig. S3)) was 0.0011 µM. The EC50 [3] was less than 0.032 µM, the “Antiviral effect in RD cells infected with EV-D68” value [4] was “greatest antiviral effect” and the IC50 [5] was greater than 50 µM. The “Mouse liver microsomes stability (in words)” value [6] was “poor mouse microsomal stability; also recorded: unstable”, the “Mouse liver microsomes CLint” value ([6]; mouse) was 70.6 μL/min/mg protein and the “Mouse liver microsomes t1/2” value ([6]; mouse) was 19.6 min. The EC50 [7] was 0.059 µM, the Human plasma stability [8] was 93.9% @ 5 hr, 37 °C and the “Mean day of death” value ([9]; 1 mg 11526092-treated group) was 6.3 days. For the same compound, the “Mean day of death” value ([9]; 3 mg 11526092-treated group) was 5.4 days, the “Mean day of death” value ([9]; 10 mg 11526092-treated group) was 4.3 days and the “Efficacy in the acute flaccid myelitis neurological infection model” value ([9]; abstract) was “did not show efficacy”. For the same compound, the Neurological scores ([9]; post-challenge study) was “none of the 1526092-treated mice showed a statistically significant reduction in neurological scores”, the “Protection from challenge infection (in words)” value ([9]; pre-challenge study) was “None of the pre-challenge 1526092-treated mice were protected from challenge infection” and the “PXR agonism (in words)” value [10] was “neither 11526092 nor pleconaril is an agonist”. It also gave an EC50 ([10]; read-out: PXR EC50) greater than 100 µM, an EC90 [11] of 0.078 µM and an EC90 [12] of 9.4 µM. For the same compound, the CC50 ([13]; read-out: 50% Cytotoxic concentration CC50, line of EV-D68 US/KY/14-18953) was 2.4 µM, the CC50 ([13]; read-out: 50% Cytotoxic concentration CC50, line of EV-D68 US/MO/14-18949) was 28 µM and the CC50 ([13]; read-out: 50% Cytotoxic concentration CC50, line of Human Echovirus-11) was 18 µM. The CC50 ([13]; read-out: 50% Cytotoxic concentration CC50, line of Human Echovirus-30) was 11 µM, the EC50 [14] was 0.042 µM and the IC50 [15] was 5 µM.

From article PMC10527014 (Antiviral research, 2023)
